Where a SMILES comes first, the peptide text is derived from it. Bridges are numbered along the chain shown (N, C = ends).
How the values were obtained:
[1] = Inhibition of mast cell degranulation in Wistar Han rat peritoneal lavage mast cells assessed as inhibition histamine release by measuring lowest concentration at which histamine release observed measured after 30 mins; assay type: functional; conditions: 0.5 h
[2] = target: Sodium channel protein type 9 subunit alpha (Homo sapiens, UniProt Q15858); experiment: Inhibition of human Nav1.7 stably expressed in cells with train pulses to -20 mV at 0.1 Hz and holding potential of -95 mV by Qube-automated patch clamp assay; assay type: cell-based
[3] = target: Sodium channel protein type 4 subunit alpha (Homo sapiens, UniProt P35499); experiment: Inhibition of human Nav1.4 stably expressed in cells with train pulses to -20 mV at 0.1 Hz and holding potential of -95 mV by whole-cell Qube-automated patch clamp assay; assay type: cell-based
[4] = target: Sodium channel protein type 8 subunit alpha (Homo sapiens, UniProt Q9UQD0); experiment: Inhibition of human Nav1.6 stably expressed in cells with train pulses to -20 mV at 0.1 Hz and holding potential of -85 mV by whole-cell Qube-automated patch clamp assay; assay type: cell-based
Chain of Sodium channel protein type 8 subunit alpha (Q9UQD0 whole entry): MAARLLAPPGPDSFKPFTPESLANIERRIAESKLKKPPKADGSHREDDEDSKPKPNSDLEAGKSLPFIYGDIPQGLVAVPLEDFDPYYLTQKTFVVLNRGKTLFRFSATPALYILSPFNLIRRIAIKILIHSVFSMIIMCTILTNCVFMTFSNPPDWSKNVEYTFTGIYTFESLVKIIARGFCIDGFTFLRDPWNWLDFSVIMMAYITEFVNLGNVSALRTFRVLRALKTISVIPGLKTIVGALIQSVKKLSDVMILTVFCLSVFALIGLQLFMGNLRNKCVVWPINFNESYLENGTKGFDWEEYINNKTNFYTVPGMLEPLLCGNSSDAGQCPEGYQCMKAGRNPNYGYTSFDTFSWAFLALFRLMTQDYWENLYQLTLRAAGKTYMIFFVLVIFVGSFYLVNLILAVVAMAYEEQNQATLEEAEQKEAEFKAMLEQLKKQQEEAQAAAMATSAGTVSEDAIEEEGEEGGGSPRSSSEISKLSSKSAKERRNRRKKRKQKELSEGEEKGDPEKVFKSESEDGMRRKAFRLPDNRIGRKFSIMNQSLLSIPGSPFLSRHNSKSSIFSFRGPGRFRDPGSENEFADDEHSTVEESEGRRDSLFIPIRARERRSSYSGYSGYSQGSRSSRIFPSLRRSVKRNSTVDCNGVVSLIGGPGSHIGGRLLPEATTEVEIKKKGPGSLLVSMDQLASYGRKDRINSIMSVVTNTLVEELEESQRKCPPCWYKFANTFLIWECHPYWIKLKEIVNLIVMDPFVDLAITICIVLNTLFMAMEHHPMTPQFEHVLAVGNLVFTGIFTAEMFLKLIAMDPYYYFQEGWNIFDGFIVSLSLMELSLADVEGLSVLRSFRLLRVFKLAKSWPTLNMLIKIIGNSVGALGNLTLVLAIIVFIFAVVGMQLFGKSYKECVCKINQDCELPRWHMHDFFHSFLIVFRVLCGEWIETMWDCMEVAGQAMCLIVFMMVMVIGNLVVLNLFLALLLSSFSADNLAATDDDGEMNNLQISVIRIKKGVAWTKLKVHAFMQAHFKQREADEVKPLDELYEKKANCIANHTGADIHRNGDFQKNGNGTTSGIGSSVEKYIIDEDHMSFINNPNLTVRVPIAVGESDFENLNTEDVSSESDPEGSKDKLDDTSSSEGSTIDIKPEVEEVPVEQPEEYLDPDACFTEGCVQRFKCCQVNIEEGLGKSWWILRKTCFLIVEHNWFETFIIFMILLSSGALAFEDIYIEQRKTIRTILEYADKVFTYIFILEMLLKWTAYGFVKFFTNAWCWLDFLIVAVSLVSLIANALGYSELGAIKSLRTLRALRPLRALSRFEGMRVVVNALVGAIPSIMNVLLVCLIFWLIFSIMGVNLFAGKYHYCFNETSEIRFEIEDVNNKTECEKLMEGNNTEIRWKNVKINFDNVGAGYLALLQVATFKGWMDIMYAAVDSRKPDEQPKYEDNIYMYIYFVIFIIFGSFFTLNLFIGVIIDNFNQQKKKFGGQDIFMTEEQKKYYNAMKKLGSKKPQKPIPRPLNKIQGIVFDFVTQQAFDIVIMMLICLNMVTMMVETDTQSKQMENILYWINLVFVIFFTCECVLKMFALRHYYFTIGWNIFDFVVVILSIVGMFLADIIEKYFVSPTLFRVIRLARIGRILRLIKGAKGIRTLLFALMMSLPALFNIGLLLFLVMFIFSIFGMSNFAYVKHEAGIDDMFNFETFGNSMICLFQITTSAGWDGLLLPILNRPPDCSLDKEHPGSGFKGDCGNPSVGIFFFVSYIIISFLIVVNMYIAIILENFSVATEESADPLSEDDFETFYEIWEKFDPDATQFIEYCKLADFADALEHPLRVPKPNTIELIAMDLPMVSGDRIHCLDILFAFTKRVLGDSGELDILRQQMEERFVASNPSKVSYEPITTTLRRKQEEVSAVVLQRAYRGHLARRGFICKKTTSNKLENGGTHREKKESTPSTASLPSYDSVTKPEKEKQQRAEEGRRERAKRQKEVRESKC

Chain of Sodium channel protein type 9 subunit alpha (Q15858 whole entry): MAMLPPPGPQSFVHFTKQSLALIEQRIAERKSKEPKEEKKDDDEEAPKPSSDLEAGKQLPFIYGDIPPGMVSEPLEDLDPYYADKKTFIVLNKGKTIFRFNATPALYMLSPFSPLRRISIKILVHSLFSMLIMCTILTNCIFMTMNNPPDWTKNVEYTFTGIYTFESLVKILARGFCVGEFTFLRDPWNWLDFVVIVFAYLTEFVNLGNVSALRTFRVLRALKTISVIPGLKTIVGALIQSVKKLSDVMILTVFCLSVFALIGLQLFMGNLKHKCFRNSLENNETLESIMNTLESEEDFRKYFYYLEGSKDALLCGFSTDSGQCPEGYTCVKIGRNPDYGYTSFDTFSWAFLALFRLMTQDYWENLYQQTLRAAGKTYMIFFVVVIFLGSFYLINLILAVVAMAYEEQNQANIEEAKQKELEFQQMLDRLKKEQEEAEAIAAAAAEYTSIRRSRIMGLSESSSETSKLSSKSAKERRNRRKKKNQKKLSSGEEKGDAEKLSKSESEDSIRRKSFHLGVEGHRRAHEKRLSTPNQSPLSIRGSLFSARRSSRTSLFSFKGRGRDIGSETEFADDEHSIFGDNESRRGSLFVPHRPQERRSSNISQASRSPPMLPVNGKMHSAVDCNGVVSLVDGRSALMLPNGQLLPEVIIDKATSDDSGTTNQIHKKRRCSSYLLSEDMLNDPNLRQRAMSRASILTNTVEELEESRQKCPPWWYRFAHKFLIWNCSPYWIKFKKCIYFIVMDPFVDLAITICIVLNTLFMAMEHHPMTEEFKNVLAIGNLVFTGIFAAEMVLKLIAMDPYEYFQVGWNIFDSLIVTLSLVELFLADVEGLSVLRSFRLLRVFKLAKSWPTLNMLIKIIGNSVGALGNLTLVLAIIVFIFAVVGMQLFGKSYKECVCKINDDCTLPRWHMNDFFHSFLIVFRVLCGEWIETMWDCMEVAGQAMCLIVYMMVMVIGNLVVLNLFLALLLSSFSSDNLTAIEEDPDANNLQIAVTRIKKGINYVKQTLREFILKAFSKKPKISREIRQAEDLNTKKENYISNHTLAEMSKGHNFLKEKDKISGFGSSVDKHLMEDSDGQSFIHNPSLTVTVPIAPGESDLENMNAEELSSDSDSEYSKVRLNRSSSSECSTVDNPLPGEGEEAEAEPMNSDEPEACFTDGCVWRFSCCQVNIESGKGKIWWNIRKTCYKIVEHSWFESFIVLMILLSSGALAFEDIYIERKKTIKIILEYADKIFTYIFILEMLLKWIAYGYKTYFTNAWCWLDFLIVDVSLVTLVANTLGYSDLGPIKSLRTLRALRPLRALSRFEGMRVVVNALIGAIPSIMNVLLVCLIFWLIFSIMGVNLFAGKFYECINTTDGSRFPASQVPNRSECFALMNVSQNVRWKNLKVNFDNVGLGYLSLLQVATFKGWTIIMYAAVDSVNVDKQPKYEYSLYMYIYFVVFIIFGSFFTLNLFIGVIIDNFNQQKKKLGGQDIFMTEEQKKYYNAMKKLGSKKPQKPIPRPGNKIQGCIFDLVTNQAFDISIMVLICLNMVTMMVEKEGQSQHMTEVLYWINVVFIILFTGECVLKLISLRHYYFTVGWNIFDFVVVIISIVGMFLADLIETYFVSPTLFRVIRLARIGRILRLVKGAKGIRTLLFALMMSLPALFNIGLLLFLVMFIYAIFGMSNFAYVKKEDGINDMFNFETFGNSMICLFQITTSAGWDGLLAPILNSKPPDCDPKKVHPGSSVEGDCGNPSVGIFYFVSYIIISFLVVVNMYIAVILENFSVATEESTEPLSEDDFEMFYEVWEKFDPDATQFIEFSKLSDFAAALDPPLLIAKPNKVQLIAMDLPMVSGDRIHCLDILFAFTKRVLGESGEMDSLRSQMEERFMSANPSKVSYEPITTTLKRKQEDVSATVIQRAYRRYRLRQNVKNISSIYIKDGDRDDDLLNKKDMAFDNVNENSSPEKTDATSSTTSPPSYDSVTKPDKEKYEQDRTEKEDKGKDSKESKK

SMILES	LED [1] [µM]	IC50 [2] [µM]	IC50 [3] [µM]	IC50 [4] [µM]
CC(=O)N[C@H]1CSSC[C@@H]2NC(=O)[C@@H]3CSSC[C@@H](C(=O)N[C@@H](CCCCN)C(=O)N[C@@H](CCCCN)C(=O)N[C@@H](CCCCN)C(=O)N[C@@H](CC(C)C)C(=O)N[C@@H](Cc4c[nH]c5ccccc45)C(N)=O)NC(=O)[C@H](Cc4c[nH]c5ccccc45)NC(=O)[C@H](CC(C)C)NC(=O)[C@H](CCCCN)NC(=O)[C@H](CSSC[C@H](NC(=O)[C@@H]4CCCN4C(=O)[C@H](CCCCN)NC(=O)[C@H](CC(C)C)NC(=O)[C@H](Cc4ccccc4)NC(=O)[C@H](CCC(=O)O)NC(=O)[C@H](CCC(N)=O)NC1=O)C(=O)N[C@@H](CC(=O)O)C(=O)N[C@@H](CCC(=O)O)C(=O)N[C@@H](CCC(=O)O)C(=O)N[C@@H](CCCNC(=N)N)C(=O)N[C@@H](CCCCN)C(=O)N3)NC(=O)[C@H](C(C)C)NC(=O)[C@H](CC(C)C)NC(=O)CNC(=O)[C@H](CCC(=O)O)NC2=O (Ac-CQEFLKPCDEERKCCEGLVCKLWCKKKLW-NH2; disulfide 1-15, 8-20, 14-24)	10	0.225	> 17	> 17
CC(=O)N[C@H]1CSSC[C@@H]2NC(=O)[C@@H]3CSSC[C@@H](C(=O)N[C@@H](CCCCN)C(=O)N[C@@H](CCCCN)C(=O)N[C@@H](CCCCN)C(=O)N[C@@H](CC(C)C)C(=O)N[C@@H](Cc4c[nH]c5ccccc45)C(N)=O)NC(=O)[C@H](Cc4c[nH]c5ccccc45)NC(=O)[C@H](CC(C)C)NC(=O)[C@H](C(C)C)NC(=O)[C@H](CSSC[C@H](NC(=O)[C@@H]4CCCN4C(=O)[C@H](CCCCN)NC(=O)[C@H](CC(C)C)NC(=O)[C@H](Cc4ccccc4)NC(=O)[C@H](CCC(=O)O)NC(=O)[C@H](CCC(N)=O)NC1=O)C(=O)N[C@@H](CC(=O)O)C(=O)N[C@@H](CCCCN)C(=O)N[C@@H](CCC(=O)O)C(=O)N[C@@H](CCCNC(=N)N)C(=O)N[C@@H](CCCCN)C(=O)N3)NC(=O)[C@H](CCC(=O)O)NC(=O)[C@H](CC(C)C)NC(=O)CNC(=O)[C@H](CCC(=O)O)NC2=O (Ac-CQEFLKPCDKERKCCEGLECVLWCKKKLW-NH2; disulfide 1-15, 8-20, 14-24)	10	0.253	> 17	> 17
CC(=O)N[C@H]1CSSC[C@@H]2NC(=O)[C@@H]3CSSC[C@@H](C(=O)N[C@@H](CCCCN)C(=O)N[C@@H](CCCCN)C(=O)N[C@@H](CCCCN)C(=O)N[C@@H](CC(C)C)C(=O)N[C@@H](Cc4c[nH]c5ccccc45)C(N)=O)NC(=O)[C@H](Cc4c[nH]c5ccccc45)NC(=O)[C@H](CC(C)C)NC(=O)[C@H](CCCCN)NC(=O)[C@H](CSSC[C@H](NC(=O)[C@@H]4CCCN4C(=O)[C@H](C)NC(=O)[C@H](CC(C)C)NC(=O)[C@H](Cc4ccccc4)NC(=O)[C@H](CCCCN)NC(=O)[C@H](CCC(N)=O)NC1=O)C(=O)N[C@@H](CC(=O)O)C(=O)N[C@@H](CCC(=O)O)C(=O)N[C@@H](CCC(=O)O)C(=O)N[C@@H](CCCNC(=N)N)C(=O)N[C@@H](CCCCN)C(=O)N3)NC(=O)[C@H](C(C)C)NC(=O)[C@H](CC(C)C)NC(=O)CNC(=O)[C@H](CCC(=O)O)NC2=O (Ac-CQKFLAPCDEERKCCEGLVCKLWCKKKLW-NH2; disulfide 1-15, 8-20, 14-24)	3.3	0.074	15.2	10.3
